15 molecules from patent US20260242372A1, “NOVEL IMIDAZOPYRIDINE AND PYRAZOLOPYRIDINE SULFONAMIDE DERIVATIVES” (Hoffmann-La Roche Inc., priority 2022, published 2026) can be followed below.

Broadly, the IC50 is the concentration at which inhibition is half-maximal.

human GPR17 short isoform, sequence (Q13304 29-367): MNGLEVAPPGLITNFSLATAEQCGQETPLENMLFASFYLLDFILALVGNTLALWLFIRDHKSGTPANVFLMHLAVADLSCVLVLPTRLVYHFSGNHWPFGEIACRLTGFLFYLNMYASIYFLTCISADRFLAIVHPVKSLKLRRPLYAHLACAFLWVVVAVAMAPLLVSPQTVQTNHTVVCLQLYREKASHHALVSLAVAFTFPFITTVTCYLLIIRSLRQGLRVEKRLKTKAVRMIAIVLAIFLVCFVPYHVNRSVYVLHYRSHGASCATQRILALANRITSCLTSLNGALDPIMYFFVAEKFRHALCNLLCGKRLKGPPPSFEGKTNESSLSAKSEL

This test has as its target human GPR17 short isoform (Homo sapiens, UniProt Q13304). The test is described as follows: GPR17 cAMP assay (hGPR17 cAMP, TR-FRET, antagonist mode). It counts as cell-based. To be noted: CHO-K1 cells stably expressing human GPR17 short isoform; EC80 of agonist MDL29,951; forskolin 15 μM; 30 min at room temperature. On the technique in general: Changes in cAMP serve as a functional read-out for many G protein-coupled receptors.
As to `COc1nc(CC#N)c(F)cc1NS(=O)(=O)c1cnn2cc(Br)ccc12` [Example 77, 6-bromo-N-[6-(cyanomethyl)-5-fluoro-2-methoxy-3-pyridyl]pyrazolo[1,5-a]pyridine-3-sulfonamide], the IC50 is 6 nM.

`COc1nc(NS(=O)(=O)c2cnc3nc(C4CC4)ccn23)c(F)cc1OCC(F)F` [Example 49, 7-cyclopropyl-N-[5-(2,2-difluoroethoxy)-3-fluoro-6-methoxy-2-pyridyl]imidazo[1,2-a]pyrimidine-3-sulfonamide] displayed an IC50 of 89 nM. Molecule `COc1nc(OC(F)F)c(F)cc1NS(=O)(=O)c1cnc2nc(C3CC3)ccn12` [Example 28, 7-cyclopropyl-N-[6-(difluoromethoxy)-5-fluoro-2-methoxy-3-pyridyl]imidazo[1,2-a]pyrimidine-3-sulfonamide] gave a concentration for half-maximal inhibition (IC50) of 31 nM. Molecule `COc1nc(NS(=O)(=O)c2cnc3cc(Cl)ccn23)nc(OC)c1OCC(F)F` [Example 90, 7-chloro-N-[5-(2,2-difluoroethoxy)-4,6-dimethoxy-pyrimidin-2-yl]imidazo[1,2-a]pyridine-3-sulfonamide] yielded an IC50 of 115 nM. Consider `COc1nc(OCC(F)F)c(F)cc1NS(=O)(=O)c1cnc2c(C#N)c(C)ccn12` [Example 27, 8-cyano-N-[6-(2,2-difluoroethoxy)-5-fluoro-2-methoxy-3-pyridyl]-7-methyl-imidazo[1,2-a]pyridine-3-sulfonamide], for which the IC50 worked out at 31 nM. With `COc1nc(OCC(F)F)c(F)cc1NS(=O)(=O)c1cnn2c(C#N)c(C)ccc12` [Example 84, 7-cyano-N-[6-(2,2-difluoroethoxy)-5-fluoro-2-methoxy-3-pyridyl]-6-methyl-pyrazolo[1,5-a]pyridine-3-sulfonamide] the figure was 130 nM.

Regarding `COc1nc(OCC(F)F)c(F)cc1NS(=O)(=O)c1cnc2c(OC)c(C)ccn12` [Example 4, N-[6-(2,2-difluoroethoxy)-5-fluoro-2-methoxy-3-pyridyl]-8-methoxy-7-methyl-imidazo[1,2-a]pyridine-3-sulfonamide], the IC50 was 8 nM. With `COc1nc(OCC(F)F)c(F)cc1NS(=O)(=O)c1cnc2n1CC(C)C2` (stereo not drawn) [Example 72, N-[6-(2,2-difluoroethoxy)-5-fluoro-2-methoxy-3-pyridyl]-6-methyl-6,7-dihydro-5H-pyrrol[1,2-a]imidazole-3-sulfonamide] the figure was 449 nM; with `COc1nc(OC(F)F)c(F)cc1NS(=O)(=O)c1cnc2cc(C)ccn12` [Example 13, N-[6-(difluoromethoxy)-5-fluoro-2-methoxy-3-pyridyl]-7-methyl-imidazo[1,2-a]pyridine-3-sulfonamide], 18 nM. With `COc1nc(OCC(F)F)c(F)cc1NS(=O)(=O)c1cnc2n1CCC(OC)C2` (stereo not drawn) [Example 62, N-[6-(2,2-difluoroethoxy)-5-fluoro-2-methoxy-3-pyridyl]-7-methoxy-5,6,7,8-tetrahydroimidazo[1,2-a]pyridine-3-sulfonamide] the figure was 217 nM; with `COc1nc(NS(=O)(=O)c2cnc3cc(Br)ccn23)c(F)cc1CC(F)F` [Example 10, 7-bromo-N-[5-(2,2-difluoroethyl)-3-fluoro-6-methoxy-2-pyridyl]imidazo[1,2-a]pyridine-3-sulfonamide], 11 nM; with `COc1nc(OCC(F)F)c(F)cc1NS(=O)(=O)c1cnc2cc(C(C)(C)O)ccn12` [Example 106, N-[6-(2,2-difluoroethoxy)-5-fluoro-2-methoxy-3-pyridyl]-7-(1-hydroxy-1-methyl-ethyl)imidazo[1,2-a]pyridine-3-sulfonamide], 38 nM.

For the molecule `COc1nc(OCC(F)F)c(F)cc1NS(=O)(=O)c1cnc2n1CCCC2C` (stereo not drawn) [Example 50, N-[6-(2,2-difluoroethoxy)-5-fluoro-2-methoxy-3-pyridyl]-8-methyl-5,6,7,8-tetrahydroimidazo[1,2-a]pyridine-3-sulfonamide], the half-maximal inhibitory concentration (IC50) worked out at 98 nM. With `COc1nc(OCC(F)F)c(F)cc1NS(=O)(=O)c1cnc2c(C#N)c(C3CC3)ccn12` [Example 33, 8-cyano-7-cyclopropyl-N-[6-(2,2-difluoroethoxy)-5-fluoro-2-methoxy-3-pyridyl]imidazo[1,2-a]pyridine-3-sulfonamide] the figure was 42 nM. `COc1nc(OC(F)F)c(F)cc1NS(=O)(=O)c1cnc2c(OC)c(C)ccn12` [Example 19, N-[6-(difluoromethoxy)-5-fluoro-2-methoxy-3-pyridyl]-8-methoxy-7-methyl-imidazo[1,2-a]pyridine-3-sulfonamide] came in with an IC50 of 19 nM.
